Data published in US20180141911A1, “Quinoline Derivatives for Diagnosis and Treatment of Alzheimer's Disease” (Northeastern University, priority 2015, published 2018).

Key:
[1] = system: tau and Aβ aggregates; details: post-mortem AD brain tissues; cited from earlier work
[2] = normal subjects, nonhuman primates; cited from earlier work

## Brc1cnc2c(OCc3ccccc3)cccc2c1
other
  melting point: 120 °C

## Oc1cccc2cccnc12 [8-Hydroxyquinoline]
[1]
  binding to tau and Aβ aggregates: bind to both tau and Aβ aggregates

## Oc1cccc2ccc([18F])nc12 [[^18F]-CABS13, [^18F]-2-fluoro-8-hydroxyquinoline]
[2]
  brain penetration: poor brain penetration
  conversion to a polar metabolite: rapid, high conversion to a polar metabolite

## Oc1c(I)cc(Cl)c2cccnc12 [clioquinol]
[1]
  binding to tau and Aβ aggregates: bind to both tau and Aβ aggregates
